Measurements reported in ChEMBL document CHEMBL5465560, “Selectivity Literature for EUbOPEN Chemogenomic Library” (2024).
Each block holds one compound with its values, some of them ahead of it.

Legend:
[1] = target: Death-associated protein kinase 2 (Homo sapiens) (UniProt Q9UIK4); test: Selectivity interaction (Ambit KINOMEscan and KiNATiv profiling in Jurkat cells) EUB0000090b DAPK2; type: cell-based; conditions: at 1 µM
[2] = target: Bone morphogenetic protein receptor type-1A (Homo sapiens, UniProt P36894); test: Selectivity interaction (KinomeScan (DiscoverX)) EUB0001079a BMPR1A; conditions: at 1 µM
[3] = target: Serine/threonine-protein kinase PLK2 (Homo sapiens, UniProt Q9NYY3); test: Selectivity interaction (SelectScreen profiling (Invitrogen)) EUB0000607a PLK2; conditions: at 2 µM
[4] = target: Serine/threonine-protein kinase SBK1 (Homo sapiens) (UniProt Q52WX2); test: Selectivity interaction (KinomeScan (DiscoverX)) EUB0000607a SBK1; conditions: at 10 µM
[5] = target: Myosin light chain kinase 2, skeletal/cardiac muscle (Homo sapiens) (UniProt Q9H1R3); test: Selectivity interaction (KinomeScan (DiscoverX)) EUB0001619a MYLK2; conditions: at 1 µM
[6] = target: Tyrosine-protein kinase Lyn (Homo sapiens, UniProt P07948); test: Selectivity interaction (ActivX KiNativ screen (kinase selectivity in THP-1 cell lysates)) EUB0000639a LYN; type: subcellular; conditions: lysate
[7] = target: T1, Serine/threonine-protein kinase D3 (Homo sapiens) (UniProt O94806); test: Selectivity interaction (ActivX KiNativ screen (kinase selectivity in THP-1 cell lysates)) EUB0000639a PRKD3; type: subcellular; conditions: lysate, at 0.2 µM
T1 sequence (whole entry): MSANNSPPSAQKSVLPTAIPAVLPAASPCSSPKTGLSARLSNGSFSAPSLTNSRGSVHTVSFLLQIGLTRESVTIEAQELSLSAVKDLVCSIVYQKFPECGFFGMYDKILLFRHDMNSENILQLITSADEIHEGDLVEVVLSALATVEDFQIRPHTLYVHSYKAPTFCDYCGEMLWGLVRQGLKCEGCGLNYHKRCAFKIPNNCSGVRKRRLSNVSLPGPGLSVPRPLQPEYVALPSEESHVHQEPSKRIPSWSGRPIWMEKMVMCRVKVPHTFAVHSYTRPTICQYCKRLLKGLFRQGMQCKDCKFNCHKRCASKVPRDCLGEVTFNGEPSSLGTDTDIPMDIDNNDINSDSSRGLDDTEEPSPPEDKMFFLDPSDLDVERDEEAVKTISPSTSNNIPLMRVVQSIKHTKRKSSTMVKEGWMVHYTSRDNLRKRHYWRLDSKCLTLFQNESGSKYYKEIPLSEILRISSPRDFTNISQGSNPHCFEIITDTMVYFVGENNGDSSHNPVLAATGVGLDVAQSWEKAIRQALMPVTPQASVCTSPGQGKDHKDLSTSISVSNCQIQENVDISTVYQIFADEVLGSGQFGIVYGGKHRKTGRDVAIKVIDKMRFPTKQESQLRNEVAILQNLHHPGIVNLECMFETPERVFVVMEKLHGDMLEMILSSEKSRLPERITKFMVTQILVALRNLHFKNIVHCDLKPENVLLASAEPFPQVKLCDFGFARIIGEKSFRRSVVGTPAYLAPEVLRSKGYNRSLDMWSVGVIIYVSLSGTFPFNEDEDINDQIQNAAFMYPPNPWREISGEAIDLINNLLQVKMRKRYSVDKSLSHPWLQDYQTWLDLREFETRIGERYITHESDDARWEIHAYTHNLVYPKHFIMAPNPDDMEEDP

[8] = target: Serine/threonine-protein kinase tousled-like 2 (Homo sapiens) (UniProt Q86UE8); test: Selectivity interaction (ActivX KiNativ screen (kinase selectivity in THP-1 cell lysates)) EUB0000639a TLK2; type: subcellular; conditions: lysate, at 0.04 µM
[9] = target: T2, Aurora kinase C (Homo sapiens) (UniProt Q9UQB9); test: Selectivity interaction (KinomeScan (DiscoverX)) EUB0000092b AURKC; conditions: at 10 µM
T2 sequence (whole entry): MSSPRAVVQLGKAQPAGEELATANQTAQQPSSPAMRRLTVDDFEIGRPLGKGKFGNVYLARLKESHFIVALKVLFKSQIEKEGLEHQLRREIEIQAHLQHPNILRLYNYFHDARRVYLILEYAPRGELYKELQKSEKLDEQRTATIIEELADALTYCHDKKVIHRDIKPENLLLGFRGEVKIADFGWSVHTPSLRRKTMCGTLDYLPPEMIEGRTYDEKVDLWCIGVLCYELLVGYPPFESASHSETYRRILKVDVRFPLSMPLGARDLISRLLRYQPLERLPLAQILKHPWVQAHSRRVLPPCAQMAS

[10] = target: T3, Ephrin type-A receptor 6 (Homo sapiens) (UniProt Q9UF33); test: Selectivity interaction (KinomeScan (DiscoverX)) EUB0000092b EPHA6; conditions: at 10 µM
T3 sequence (whole entry): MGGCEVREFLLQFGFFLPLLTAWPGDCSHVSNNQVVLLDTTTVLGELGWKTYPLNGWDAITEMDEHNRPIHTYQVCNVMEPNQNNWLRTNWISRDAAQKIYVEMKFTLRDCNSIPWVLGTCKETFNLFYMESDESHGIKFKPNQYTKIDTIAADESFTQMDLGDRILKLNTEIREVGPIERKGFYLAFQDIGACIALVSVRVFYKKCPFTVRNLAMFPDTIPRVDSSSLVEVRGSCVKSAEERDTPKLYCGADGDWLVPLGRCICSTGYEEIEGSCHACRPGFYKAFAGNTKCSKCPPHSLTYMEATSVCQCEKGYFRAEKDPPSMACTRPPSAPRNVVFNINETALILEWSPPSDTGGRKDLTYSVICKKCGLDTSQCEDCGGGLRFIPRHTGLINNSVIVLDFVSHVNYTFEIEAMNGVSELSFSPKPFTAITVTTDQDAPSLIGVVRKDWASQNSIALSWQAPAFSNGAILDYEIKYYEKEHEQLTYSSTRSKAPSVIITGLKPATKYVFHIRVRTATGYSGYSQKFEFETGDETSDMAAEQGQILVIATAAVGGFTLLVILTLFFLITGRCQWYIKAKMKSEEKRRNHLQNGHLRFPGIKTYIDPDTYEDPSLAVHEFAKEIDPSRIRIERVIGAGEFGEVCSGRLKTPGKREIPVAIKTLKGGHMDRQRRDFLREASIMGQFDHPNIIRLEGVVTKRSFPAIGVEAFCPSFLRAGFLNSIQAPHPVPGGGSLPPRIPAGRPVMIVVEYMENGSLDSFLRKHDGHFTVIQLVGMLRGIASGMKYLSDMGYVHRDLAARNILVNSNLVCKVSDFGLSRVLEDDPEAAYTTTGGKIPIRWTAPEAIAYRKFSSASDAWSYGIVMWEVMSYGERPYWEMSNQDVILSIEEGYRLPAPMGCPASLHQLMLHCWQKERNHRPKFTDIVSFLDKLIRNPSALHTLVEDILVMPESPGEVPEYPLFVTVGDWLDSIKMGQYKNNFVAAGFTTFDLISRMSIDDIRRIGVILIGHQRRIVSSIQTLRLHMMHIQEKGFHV

Sequence of Tyrosine-protein kinase Lyn (P07948 2-512 limits assumed): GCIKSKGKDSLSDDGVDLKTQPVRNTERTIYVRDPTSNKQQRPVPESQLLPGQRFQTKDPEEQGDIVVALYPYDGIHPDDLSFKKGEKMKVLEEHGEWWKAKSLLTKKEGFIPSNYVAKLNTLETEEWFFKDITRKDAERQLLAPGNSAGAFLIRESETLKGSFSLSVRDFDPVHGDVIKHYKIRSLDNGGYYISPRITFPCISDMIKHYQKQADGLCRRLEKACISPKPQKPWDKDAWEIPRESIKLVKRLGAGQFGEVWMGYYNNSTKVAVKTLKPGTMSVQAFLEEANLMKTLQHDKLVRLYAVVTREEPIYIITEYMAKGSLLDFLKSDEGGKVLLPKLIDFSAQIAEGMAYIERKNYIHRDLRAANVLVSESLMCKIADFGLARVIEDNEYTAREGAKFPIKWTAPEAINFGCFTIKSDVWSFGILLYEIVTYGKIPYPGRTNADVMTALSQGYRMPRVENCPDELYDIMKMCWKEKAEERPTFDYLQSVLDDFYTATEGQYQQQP
Sequence of Serine/threonine-protein kinase tousled-like 2 (Homo sapiens) (Q86UE8 whole entry, looked up): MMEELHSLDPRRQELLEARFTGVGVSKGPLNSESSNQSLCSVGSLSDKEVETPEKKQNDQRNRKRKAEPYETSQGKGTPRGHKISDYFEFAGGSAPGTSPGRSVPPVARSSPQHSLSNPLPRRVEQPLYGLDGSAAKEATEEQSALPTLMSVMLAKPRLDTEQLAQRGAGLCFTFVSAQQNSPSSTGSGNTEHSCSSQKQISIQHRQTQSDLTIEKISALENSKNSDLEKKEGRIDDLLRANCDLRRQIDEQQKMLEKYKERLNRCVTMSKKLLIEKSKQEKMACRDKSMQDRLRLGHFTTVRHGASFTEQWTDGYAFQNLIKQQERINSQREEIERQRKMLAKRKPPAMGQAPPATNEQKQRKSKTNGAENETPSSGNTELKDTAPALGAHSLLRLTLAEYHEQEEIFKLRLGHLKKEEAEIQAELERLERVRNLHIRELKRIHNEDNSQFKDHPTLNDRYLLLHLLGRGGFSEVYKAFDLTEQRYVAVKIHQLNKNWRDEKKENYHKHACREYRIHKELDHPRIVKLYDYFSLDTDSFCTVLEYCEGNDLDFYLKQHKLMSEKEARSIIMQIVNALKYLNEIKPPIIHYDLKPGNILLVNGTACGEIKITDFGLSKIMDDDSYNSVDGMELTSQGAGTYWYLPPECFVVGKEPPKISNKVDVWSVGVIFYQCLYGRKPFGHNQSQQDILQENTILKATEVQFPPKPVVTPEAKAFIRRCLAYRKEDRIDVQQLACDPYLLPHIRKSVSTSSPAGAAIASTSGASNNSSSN
Sequence of Myosin light chain kinase 2, skeletal/cardiac muscle (Homo sapiens) (Q9H1R3 whole entry): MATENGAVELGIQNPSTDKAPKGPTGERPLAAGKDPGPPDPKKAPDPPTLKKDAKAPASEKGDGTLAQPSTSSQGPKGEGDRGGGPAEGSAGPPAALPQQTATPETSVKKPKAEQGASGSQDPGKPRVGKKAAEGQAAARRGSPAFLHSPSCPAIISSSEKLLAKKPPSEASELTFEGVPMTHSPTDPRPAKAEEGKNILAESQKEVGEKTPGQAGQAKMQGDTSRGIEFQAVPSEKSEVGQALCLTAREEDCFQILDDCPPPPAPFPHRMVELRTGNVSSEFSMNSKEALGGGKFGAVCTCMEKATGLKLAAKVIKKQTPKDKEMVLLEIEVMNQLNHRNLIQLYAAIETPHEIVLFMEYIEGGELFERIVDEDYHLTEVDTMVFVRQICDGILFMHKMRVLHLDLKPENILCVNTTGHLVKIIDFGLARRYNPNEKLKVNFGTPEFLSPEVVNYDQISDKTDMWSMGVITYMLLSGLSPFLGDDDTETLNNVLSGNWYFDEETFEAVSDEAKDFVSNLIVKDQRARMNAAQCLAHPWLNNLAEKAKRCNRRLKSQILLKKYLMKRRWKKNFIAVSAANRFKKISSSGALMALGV
Sequence of Bone morphogenetic protein receptor type-1A (P36894 whole entry): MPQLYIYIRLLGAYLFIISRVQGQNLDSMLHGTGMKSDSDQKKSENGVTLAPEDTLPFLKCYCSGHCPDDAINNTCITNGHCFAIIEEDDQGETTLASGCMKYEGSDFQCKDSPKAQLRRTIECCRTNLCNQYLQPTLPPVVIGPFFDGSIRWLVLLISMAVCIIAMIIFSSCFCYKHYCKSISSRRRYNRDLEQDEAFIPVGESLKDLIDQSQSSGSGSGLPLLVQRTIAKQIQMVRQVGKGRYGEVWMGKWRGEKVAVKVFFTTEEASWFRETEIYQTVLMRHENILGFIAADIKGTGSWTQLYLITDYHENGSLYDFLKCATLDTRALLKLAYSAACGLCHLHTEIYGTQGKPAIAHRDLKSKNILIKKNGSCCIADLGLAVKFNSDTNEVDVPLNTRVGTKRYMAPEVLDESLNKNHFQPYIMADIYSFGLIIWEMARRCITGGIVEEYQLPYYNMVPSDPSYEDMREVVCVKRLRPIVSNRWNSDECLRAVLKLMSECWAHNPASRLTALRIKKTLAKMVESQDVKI
Sequence of Serine/threonine-protein kinase SBK1 (Homo sapiens) (Q52WX2 whole entry): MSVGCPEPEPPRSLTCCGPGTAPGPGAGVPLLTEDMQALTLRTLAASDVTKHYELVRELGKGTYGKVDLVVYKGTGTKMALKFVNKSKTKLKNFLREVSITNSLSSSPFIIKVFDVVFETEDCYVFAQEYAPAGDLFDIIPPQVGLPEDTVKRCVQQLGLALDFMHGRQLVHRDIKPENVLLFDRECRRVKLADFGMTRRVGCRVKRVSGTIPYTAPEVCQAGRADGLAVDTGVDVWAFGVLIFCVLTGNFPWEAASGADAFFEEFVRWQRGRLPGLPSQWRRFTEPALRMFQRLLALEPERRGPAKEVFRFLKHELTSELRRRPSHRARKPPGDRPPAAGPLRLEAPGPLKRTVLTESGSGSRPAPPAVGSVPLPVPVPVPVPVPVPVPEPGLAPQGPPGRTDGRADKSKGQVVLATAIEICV
Sequence of Serine/threonine-protein kinase PLK2 (Q9NYY3 whole entry, looked up): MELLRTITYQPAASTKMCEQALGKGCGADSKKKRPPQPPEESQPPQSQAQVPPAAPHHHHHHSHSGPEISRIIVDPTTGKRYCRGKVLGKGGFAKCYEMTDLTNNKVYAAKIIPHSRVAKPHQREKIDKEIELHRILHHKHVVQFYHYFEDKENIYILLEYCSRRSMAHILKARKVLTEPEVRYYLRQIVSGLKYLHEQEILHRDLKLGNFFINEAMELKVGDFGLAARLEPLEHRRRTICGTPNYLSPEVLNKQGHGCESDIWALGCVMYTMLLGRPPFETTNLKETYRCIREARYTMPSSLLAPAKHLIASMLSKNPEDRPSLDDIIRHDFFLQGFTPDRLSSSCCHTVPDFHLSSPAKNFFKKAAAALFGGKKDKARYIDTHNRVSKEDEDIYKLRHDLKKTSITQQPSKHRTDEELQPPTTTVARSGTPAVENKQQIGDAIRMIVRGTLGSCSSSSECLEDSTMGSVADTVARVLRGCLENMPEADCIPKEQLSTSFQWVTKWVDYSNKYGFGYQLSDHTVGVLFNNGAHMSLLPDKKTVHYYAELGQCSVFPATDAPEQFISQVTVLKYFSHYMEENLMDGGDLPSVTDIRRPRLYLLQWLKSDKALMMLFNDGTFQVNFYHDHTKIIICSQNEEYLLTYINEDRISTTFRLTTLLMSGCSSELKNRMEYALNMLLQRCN
Sequence of Death-associated protein kinase 2 (Homo sapiens) (Q9UIK4 whole entry, looked up): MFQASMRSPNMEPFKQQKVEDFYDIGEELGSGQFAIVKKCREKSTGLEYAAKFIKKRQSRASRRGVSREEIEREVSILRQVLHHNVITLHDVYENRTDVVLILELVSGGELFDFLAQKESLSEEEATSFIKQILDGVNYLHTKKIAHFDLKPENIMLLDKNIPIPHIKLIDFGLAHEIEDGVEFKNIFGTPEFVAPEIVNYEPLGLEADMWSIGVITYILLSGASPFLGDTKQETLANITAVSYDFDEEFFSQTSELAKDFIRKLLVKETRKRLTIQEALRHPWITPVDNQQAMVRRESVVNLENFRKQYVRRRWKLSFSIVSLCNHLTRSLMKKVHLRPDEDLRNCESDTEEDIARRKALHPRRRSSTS

SMILES: CN(C)C/C=C/C(=O)Nc1ccc(C(=O)N2CCCC(Nc3ncc(Cl)c(-c4c[nH]c5ccccc45)n3)C2)cc1 (centres undefined)
% of control [1]: 98%

SMILES: Nc1cnc(N2CCc3cc(S(=O)(=O)Nc4c(F)cc(Cl)cc4F)cc(N4CCCC4=O)c32)nc1 [TP-020n]
% of control [2]: 91%

SMILES: CNC(=O)Nc1ccc(-c2nc(N3CC4CCC(C3)O4)c3cnn(C4CCC5(CC4)OCCO5)c3n2)cc1
% of inhibition [3]: 1%
% of control [4]: 100%

SMILES: N#Cc1cccc(-c2c[nH]c3ncnc(N4CCOCC4)c23)c1
% of control [5]: 92%

% of inhibition ([6]; at 0.01 µM): 12.8%
% of inhibition ([6]; at 0.04 µM): -4.2%
% of inhibition ([6]; at 0.2 µM): 5.4%
% of inhibition ([6]; at 1 µM): 6%
% of inhibition ([6]; at 5 µM): 2.2%
% of inhibition [7]: -4.6%
% of inhibition [8]: 9.2%
SMILES: CC[C@@H]1[C@H](F)C(=O)N[C@@H]1COc1nccc2cc(C(N)=O)c(OC)cc12 [ZIMLOVISERTIB]

SMILES: CCC(=O)N1CCN(c2ccc(-n3c(=O)ccc4cnc5ccc(-c6cnc7ccccc7c6)cc5c43)cc2C(F)(F)F)CC1
% of control [9]: 91%
% of control [10]: 75%
